According to patent US5734081A, “Arylthio compounds” (Warner-Lambert Company, priority 1995, dated 1998):

Experiments:
[1] = CEM cell growth inhibition (XTT, noninfected cells); assay type: cell-based; conditions: human, CEM Cell Assay, drug alone, read-out: IC50 (Inhibitory Concentration where drug alone inhibits cell growth)
Experimental: (§1) Yet another test system employed to determine antiviral activity is called the CEM cell assay.
(§2) T4 lymphocytes (CEM cell line) are exposed to HIV at a virus to cell ratio approximately 0.05, and plated along with noninfected control cells in 96-well microliter plates.
(§3) The candidate agent is dissolved in dimethyl sulfoxide (unless otherwise noted), then diluted 1:200 in cell culture medium. Further dilutions (half-log10) are prepared before adding to an equal volume of medium containing either infected or noninfected cells. Cultures are incubated at 37° in a 5% carbon dioxide atmosphere for 6 or 7 days. The tetrazolium salt, XTT, is added to all wells, and cultures are incubated to allow formazan color development by viable cells (J. National Cancer Institute, 1989;81:577-586). Individual wells are analyzed spectrophotometrically to quantitate formazan production, and in addition are viewed microscopically for detection of viable cells confirmation of protective activity.
(§4) Drug-tested virus-infected cells are compared with drug-treated noninfected cells and with other appropriate controls (untreated infected and untreated noninfected cells, drug-contain wells without cells, etc.) on the same plate. Data are reviewed in comparison with other tests done at the same time and a determination about activity is made.

[2] = molecular target: T1, HIV-1 Nucleocapsid Protein (NCp7) (Human immunodeficiency virus type 1 group M subtype B, UniProt P12493); assay: Zinc extrusion assay (TSQ fluorescence) from the zinc fingers of HIV-1 nucleocapsid protein (NCp7); assay type: biochemical; conditions: 10 μM compound, 2.8 μM NCp7, pH 7.4, 26° C., 90 minutes
T1 construct: The NCp7 protein containing 2 Zn-fingers and 2 Zn ions is incubated with drug
Description: The compounds of the present invention cause the extrusion of zinc from the nucleocapsid protein (NCp7) of HIV-1. The NC protein is highly conserved among all retroviruses (South T., Blake P., et al., Biochemistry, 1990;29:7786) and is essential for viral infectivity (Aldovini A. and Young R., J. Virology, 1990;64:1920 and Gorelick R., Nigida S., et al., J. Virology, 1990;64:3207). The zinc is normally held in NC proteins by 1 or 2 zinc fingers. In the case of HIV-1, 2 zinc fingers are present (Summers M., South T., et al., Biochemistry, 1990;29:329) and are involved specifically with the PSI site on viral RNA which controls the packaging of viral RNA. Interference of this packaging causes the formation of non-infectious virions (Dannull J., Surovoy A., et al., EMBO, 1994;13:1525). It has previously been shown that compounds that cause zinc extrusion have potent anti-HIV activity in multiple cell lines and against all retroviruses (Rice W., Schaeffer C., et al., Nature, 1993;361:473).
A fluorescence-based assay has been developed to monitor the ejection of zinc from purified HIV-1 NCp7. The fluorophore, N-(6-methoxy-8-quinolyl)-p-toluenesulfonamide (TSQ), has an increased fluorescent signal upon bonding zinc ion in solution. The NCp7 protein containing 2 Zn-fingers and 2 Zn ions is incubated with drug causing the extrusion of Zn ions. The released Zn is then sequestered by the TSQ and the increased fluorescence monitored relative to control. […] Fluorescence (excitation 355 nm emission 400 nm) was monitored versus time. Controls were the NCp7 under assay conditions without drug, and apo NCp7 (no Zn) with drug. The % Zn extrusion was calculated based on the actual fluorescence measured divided by the fluorescence of all theoretical Zn extruded (5.6 μM)×100.
Table 1 below presents data for several invention compounds evaluated in the zinc extrusion assay described above.

HIV-1 [3] = assay: CEM cell assay, anti-HIV-1 activity; assay type: cell-based; conditions: Human immunodeficiency virus 1, CCRF-CEM, HIV-1, 6 or 7 days, read-out: EC50 (Effective Concentration which protects cells from viral cytopathic effects)
Description: The test systems utilized to establish the antiviral activity of the arylthio compounds of this invention are well recognized in the art and are routinely employed for such purpose. For example, the assay utilized to evaluate the compounds activity against the HIV virus is that employed by the U.S. National Cancer Institute as described by Weislow O. S., et al., J. Natl. Cancer Inst., 1989;81:577-586, incorporated herein by reference.
The procedure is designed to detect agents acting at any stage of the virus reproductive cycle. The assay basically involves the killing of T4 lymphocytes by HIV. Small amounts of HIV are added to cells, and at least two complete cycles of virus reproduction are necessary to obtain the required cell killing. Agents which interact with virions, cells, or virus gene-products to interfere with viral activities will protect cells from cytolysis. The system is automated in several features to accommodate large numbers of candidate agents, and is generally designed to detect anti-HIV activity. However, compounds which degenerate or are rapidly metabolized in the culture conditions may not show activity in this screen.
as §1, §2, §3, §4

[4] = H9 cell cytotoxicity (XTT assay, uninfected cells); assay type: cell-based; conditions: human, drug alone, read-out: IC50 (Inhibitory Concentration where drug alone inhibits cell growth)
Experimental: (§5) The H9 T-cell line is batch infected with HIV virus at an M0I of 0.01. After 2 hours absorption, the cells are washed, resuspended in RPMI-1640/10% fetal calf serum, and seeded at […] of a 96-well plate. A duplicate plate of uninfected H9 cells is prepared for the cytotoxicity assay. Drugs are serially diluted 1/3.16 in DMSO, transferred to media at an 8× concentration, and then added to the cultures in triplicate. The final DMSO concentration of 0.002 (0.2%).
(§6) Viral production is measured by RT assay and cytotoxicity is measured by XTT assay at 7 days post-infection. The RT assay is performed as a modification of Borroto-Esoda and Boone, J. Virol., 1991;65:1952-1959 and quantitated using a Molecular Dynamics Phosphoimager with Imagequant software. The XTT assay is performed as a modification of Roehm, et al., J. Immuno. Methods., 1991;142:257-265 and quantitated using a molecular Devices Thermomax plate reader with Softmax software.
(§7) Data is electronically transferred to a Microsoft Excell spreadsheet for analysis. The RT assay values equivalent to 50% and 90% inhibition of virus production are calculated from the untreated controls. The concentrations of inhibitor required to produce these values (IC50 and IC90) are interpolated from data points flanking these RT activities. The XTT assay values equivalent to 50% cytotoxicity are calculated from the untreated controls. The concentrations of inhibitor required to produce this value are interpolated from data points flanking these XTT values.

HIV-1 [5] = assay: HIV H9 cell assay, anti-HIV-1 activity; assay type: cell-based; conditions: Human immunodeficiency virus 1, H9, 168 h, read-out: EC50 (Effective Concentration which protects cells from viral cytopathic effects)
Description: Another test system utilized to evaluate the invention compounds is called HIV H9 assay. The HIV H9 cell assay measures the inhibitor concentration required to suppress HIV-1 virus replication. In this system, viral growth occurs through multiple rounds of the life-cycle. Any suppression of the replication kinetics results in a geometric decrease in virus production. As a result, this assay is a sensitive means of measuring the ability of a compound to inhibit HIV-1 viral replication.
as §5, §6, §7

SMILES	CC50 [1] [µM]	% Zinc Extrusion Relative to Control [2] [%]	EC50 (HIV-1 [3]) [µM]	CC50 at 168 h [4] [µM]	EC50 (HIV-1 [5]) [µM]
O=C(N[C@@H](C(=O)O)c1ccccc1)c1ccccc1SSc1ccccc1C(=O)N[C@@H](C(=O)O)c1ccccc1 [Example 68, [R-(R*,R*)] (2-{2-[(Carboxy-phenyl-methyl)-carbamoyl]phenyldisulfanyl}-benzoylamino)-phenyl-acetic acid]	> 100	89	25		
CC(SSc1ccccc1C(=O)Nc1ccc(S(N)(=O)=O)cc1)C(=O)NCC(=O)O (centres unmarked) [Example 135, {2-[2-(4-Sulfamoylphenylcarbamoyl)phenyldisulfanyl]propionylamino}-acetic acid]	> 100	40	5.8		
O=C(Nc1ccc(S(=O)(=O)Nc2ncccn2)cc1)c1ccccc1SSc1ccccc1C(=O)Nc1ccc(S(=O)(=O)Nc2ncccn2)cc1 [Example 15, 2,2'-Dithiobis[N-[4-[(2-pyrimidinylamino)sulfonyl]phenyl]-benzamide]]		72		22	2
CC(SSc1ccccc1C(=O)Nc1ccc(S(N)(=O)=O)cc1)C(=O)O (centres unmarked) [Example 132, 2-[2-(4-Sulfamoylphenylcarbamoyl)phenyldisulfanyl]propionic acid]	> 100	70	2.8		
CN(C(=O)c1ccccc1SSc1ccccc1C(=O)N(C)c1ccc(S(N)(=O)=O)cc1)c1ccc(S(N)(=O)=O)cc1 [Example 142]	> 100	84	17		
CCC(C)C(NC(=O)c1ccccc1SSc1ccccc1C(=O)NC(C(=O)O)C(C)CC)C(=O)O (racemic) [Example 5, 2-[[2-[(1-Carboxy-2-methylbutylcarbamoyl)phenyldisulfanyl]-benzoyl]-amino]-3-methylpentanoic acid]	105	87	10.5	62	1.4
NS(=O)(=O)c1ccc(NC(=O)c2ccc(SSc3ccc(C(=O)Nc4ccc(S(N)(=O)=O)cc4)cc3)cc2)cc1 [Reference Compound, 4,4dithiobis-4sulfamoyl benzanilide, reference compound]	> 100	0	> 100	> 100	> 100
NC(=O)c1cc(NC(=O)C(F)(F)F)ccc1SSc1ccc(NC(=O)C(F)(F)F)cc1C(N)=O [Example 74]	67	59	6.3		
NS(=O)(=O)c1ccc(CNC(=O)c2ccccc2SSc2ccccc2C(=O)NCc2ccc(S(N)(=O)=O)cc2)cc1 [Example 12, 2,2'-Dithiobis[N-[[4-(aminosulfonyl)phenyl]methy]benzamide]]	21	27	0.59		
CC(=O)Nc1ccc(S)c(C(N)=O)c1 [Example 10, 5-Acetylamino-2-thiobenzamide]				> 100	5.4
O=C(O)CCNC(=O)c1ccccc1SSc1ccccc1C(=O)NCCC(=O)O [Example 76, 3,3'-[Dithiobis(2,1-phenylenecarbonylimino)]bis-propionic acid]	> 100	82	6.2		
CC(=O)N[C@@H](CSSc1ccccc1C(=O)Nc1ccc(S(N)(=O)=O)cc1)C(=O)O [Example 134, 2-Acetylamino-3-[2-(4-sulfamoylphenylcarbamoyl)phenyldisulfanyl]-propionic acid]	> 100	77	6.9		
COC(=O)[C@H](CSSc1ccccc1C(=O)Nc1ccc(S(N)(=O)=O)cc1)NC(C)=O [Example 133, 2-Acetylamino-3-[2-(4-sulfamoylphenylcarbamoyl)phenyldisulfanyl]-propionicacid, methyl ester]	69	53	6.7		
COC(=O)[C@H](N)C(C)(C)SSc1ccccc1C(=O)Nc1ccc(S(N)(=O)=O)cc1 [Example 139, 2-Amino-3-methyl-3-[2-(4-sulfamoylphenylcarbamoyl)phenyldisulfanyl]-butyric acid, methyl ester]	> 100	70	6.9		
COc1ccc(C(=O)Nc2ccc(S(N)(=O)=O)cc2)c(SSc2cc(OC)ccc2C(=O)Nc2ccc(S(N)(=O)=O)cc2)c1 [Example 19, 2,2'-Dithiobis[N-[4-(aminosulfonyl)phenyl]-4-methoxybenzamide]]	> 100		2.4		
NC(=O)c1cc(NC(=O)c2ccccc2)ccc1SSc1ccc(NC(=O)c2ccccc2)cc1C(N)=O [Example 75, 2,2'-Dithiobis[5-(benzoylamino)-benzamide]]	59	52	5.3		
NS(=O)(=O)c1cc(Cl)ccc1SSc1ccc(Cl)cc1S(N)(=O)=O [Example 148, 2,2'-Dithiobis[5-chloro]-benzenesulfonamide]	30	92	12		
